Conditions in all cases: in vivo
Data set [1] concerns Rattus norvegicus. Briefly: Pressor activity in iv dosed normotensive Sprague-Dawley rat assessed as dose required for increasing systolic blood pressure […] 30 mm Hg. It counts as organism-based, Artery.
Data set [2] concerns Rattus norvegicus. Nature of the data set: Neurotoxicity in Sprague-Dawley rat heart atria assessed as inhibition of [3H]norepinephrine uptake at 20 to 160 mg/kg, iv after 24 hrs by scintillation counting analysis. It counts as toxicity, organism-based. The arrangement: dose 20-160 mg/kg, route intravenous.
In data set [3] the test system is Rattus norvegicus. Nature of the data set: Central neurotoxicity in iv dosed Sprague-Dawley rat brain hypothalamus assessed as inhibition of [3H]norepinephrine uptake after 24 hrs by scintillation counting analysis. It counts as organism-based.
Data set [4] deals with Rattus norvegicus. Briefly: Neurotoxicity in Sprague-Dawley rat heart atria assessed as inhibition of [3H]norepinephrine uptake at 10 mg/kg, iv after 24 hrs by scintillation counting analysis. The arrangement: dose 10 mg/kg, route intravenous. It counts as toxicity, organism-based.

In the case of `C[C@H](N)Cc1ccc(O)c(O)c1`, in data set [1], the Activity came to 3.1 µg. With `NCCc1ccc(O)c(O)c1` [DOPAMINE], the Activity in data set [1] was determined as 2.9 µg. Consider `Cl.NCCc1cc(O)c(O)cc1S`, for which the values for the Activity result in data set [2], in data set [3] and in data set [1] were “Toxic”, “Non-toxic” and 1.3 ×10⁻⁴ g, respectively. `CC(N)Cc1cc(O)c(O)cc1O` (stereo not drawn): the Activity in data set [1] turned out to be 6 ×10⁻⁵ g. With `NCCc1cc(O)c(O)cc1O` [OXIDOPAMINE], the Activity in data set [1] is listed as 1.6 ×10⁻⁵ g; in data set [4], “Toxic”.

For the origin of these results see ChEMBL document CHEMBL3243922, “Synthesis, redox characteristics, and in vitro norepinephrine uptake inhibiting properties of 2-(2-mercapto-4,5-dihydroxyphenyl)ethylamine (6-mercaptodopamine)” (J Med Chem, 1979).
